The values that follow come from patent US20170335336A1, “USE OF A SELECTABLE MARKER GENE IN SUGAR BEET PROTOPLASTS TRANSFORMATION METHOD AND SYSTEM” (SESVanderHave N.V., priority 2014, published 2017).

For assay [1], the system named is wild type sugar beet protoplasts. The experiment in a line: killing curve for optimal herbicide concentration. In kind it is cell-based, sugar beet (Beta vulgaris L.). Conditions: killing curve (Table 1 and Table 2). The protocol: The optimal herbicide (ALS inhibitor) concentration used in the method according to the invention was determined from a killing curve concentration for two preferred ALS inhibitors (Foramsulfuron and Ethoxysulfuron) and was established as follows: • To use optimal concentration of herbicide for selection of transformed sugar beet protoplasts, killing curve was developed on wild type sugar beet protoplasts with the following concentrations (Table 1 and Table 2). Based on the results obtained from the killing curve experiments concentration of 5×10^−9M for foramsulfuron and 5×10^−11M for ethoxysulfuron were selected for using with transformed sugar beet protoplasts with pS189 plasmid DNA carrying the mutated BvALS nucleotide sequence.

Assay [2] has as its system non-transformed protoplasts. The experiment in a line: control experiment: non-transformed protoplasts on selection media. In kind it is cell-based, sugar beet (Beta vulgaris L.). How it is done:
Transformation experiments were performed using plasmid DNA (pS189) according to the standard PEG transformation system under two selection media containing 5×10^−9M foramsulfuron (ALF) and 5×10^−11M ethoxysulfuron (ALE) concentrations. The selection of only the transformed protoplasts were evidenced by the number of calli recovered from each transformation experiment. […] So far seven transformation experiments were performed for ALF and six experiments for ALE. From ALF experiments, about 1799 buds and 89 regenerated plantlets were obtained (Table 3).

`CCOc1ccccc1OS(=O)(=O)NC(=O)Nc1nc(OC)cc(OC)n1` [ethoxysulfuron]: the “concentration selected from killing curve experiments for selection of transformed protoplasts” value in assay [1] was found to be 0.05 nM. In addition, in assay [2] (selection medium containing 5×10^−11M ethoxysulfuron (ALE)), the “calli / survival of cells on selection medium” value is “did not result in any calli or survival of cells”.

Regarding `COc1cc(OC)nc(NC(=O)NS(=O)(=O)c2cc(NC=O)ccc2C(=O)N(C)C)n1` [foramsulfuron], the “concentration selected from killing curve experiments for selection of transformed protoplasts” value in assay [1] turned out to be 5 nM. Further, in assay [2] (selection medium containing 5×10^−9M foramsulfuron (ALF)), the “calli / survival of cells on selection medium” value was “did not result in any calli or survival of cells”.
